Measurements: PubChem BioAssay (NCI)
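These data come from cells grown in 96-well plates and exposed to compound for 48 hours at five concentrations. TGI: concentration producing complete growth inhibition.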

Legend:
Assay in all cases: inhibition of tumour cell growth, NCI panel, 48 h
[1] = test system: HL-60(TB) leukemia
[2] = test system: HCT-116 colon
[3] = test system: DU-145 prostate
[4] = test system: HOP-62 NSCLC
[5] = test system: SNB-19 CNS
[6] = test system: KM12 colon
[7] = test system: PC-3 prostate
[8] = test system: OVCAR-8 ovarian
[9] = test system: MALME-3M melanoma
[10] = test system: A549 NSCLC
[11] = test system: OVCAR-4 ovarian
[12] = test system: NCI-H226 lung
[13] = test system: LOX IMVI melanoma
[14] = test system: T-47D breast
[15] = test system: NCI-H460 lung
[16] = test system: CCRF-CEM leukemia
[17] = test system: UACC-62 melanoma
[18] = test system: EKVX NSCLC
[19] = test system: MCF7 breast
[20] = test system: HCT-15 colon

SMILES	TGI [1] [µM]	TGI [2] [µM]	TGI [3] [µM]	TGI [4] [µM]	TGI [5] [µM]	TGI [6] [µM]	TGI [7] [µM]	TGI [8] [µM]	TGI [9] [µM]	TGI [10] [µM]	TGI [11] [µM]	TGI [12] [µM]	TGI [13] [µM]	TGI [14] [µM]	TGI [15] [µM]	TGI [16] [µM]	TGI [17] [µM]	TGI [18] [µM]	TGI [19] [µM]	TGI [20] [µM]
CC1=C(C(=O)OCCO[N+](=O)[O-])C(c2cccc([N+](=O)[O-])c2)C(C(=O)OC(C)C)=C(C)N1 (stereo not drawn)	> 100	22.2	65.9	30.9	75.4	23.1	15.6	54.2	51.9	37.4	37.7	28.2	31.6	53.6	34.4	> 100	30.2	48.9	86.3	27.4
Cn1c2ccc([N+](=O)[O-])cc2c(=O)n1Cc1ccccc1F	> 100	> 100	> 100	> 100	> 100	> 100	> 100	> 100	> 100	> 100	> 100	92.4	> 100	> 100	> 100	> 100	> 100	> 100	> 100	> 100
COc1ccccc1CCN1CCN(CCCc2ccccc2)CC1	> 100	> 100	> 100	> 100	> 100	> 100	> 100	> 100	> 100	> 100	> 100	> 100	> 100	> 100	> 100	> 100	> 100	> 100	> 100	> 100
CCCCS(=O)(=O)CCC(N)P(=O)(O)O (stereo not drawn)	> 100	> 100	> 100	> 100	> 100	> 100	> 100	> 100	> 100	> 100	> 100	> 100	> 100	> 100	> 100	> 100	> 100	> 100	> 100	> 100
C/C(=C\CO)CC/C=C(\C)CNc1c(F)c(F)c(F)c(F)c1F	65.8	> 100	> 100	68	75	77.5	58.5	38	57.2	94.8	> 100	75.1	80.8	> 100	> 100	> 100	37.9	98.3	70.1	85.4
C=CCC1(O)CC(n2cc(C)c(=O)[nH]c2=O)OC1CO[Si](C)(C)C(C)(C)C (stereo not drawn)		> 100	> 100	> 100	> 100	> 100	> 100	> 100		> 100	> 100	> 100	89.6	> 100	> 100	> 100	> 100	> 100	> 100	> 100
CCOC(=O)c1c(SC(=O)c2ccc(C(C)(C)C)cc2)n(-c2ccccc2)c(=S)n(-c2ccccc2)c1=O	> 100	> 100	> 100	> 100	> 100	> 100	> 100	> 100	> 100	> 100	> 100	> 100	> 100	> 100	> 100	> 100	> 100	> 100	> 100	> 100
CS(=O)(=O)OCCCCOS(=O)(=O)CF	> 100	> 100	> 100	> 100	> 100	> 100	> 100	> 100	> 46.4	> 100	> 100	> 100	> 100	> 100	> 100	> 100	> 100	> 100	> 100	> 100
COc1c2c(cc3c1C(=O)c1c(O)cccc1C3=O)CC(O)CC2 (stereo not drawn)	> 100	> 100	> 100	46	57.1	> 100	> 100	> 100	> 100	> 100	> 100	> 100	> 100	93.6	> 100	> 100	> 100	> 100	> 100	> 100
c1ccc(C(C2=Nc3cccc4cccc(c34)N2)c2ccccc2)cc1	> 100		91.3	56.6	> 100	49.6	87.3	> 100	73.3	> 100	> 100	84.7	37.3	37	54.3	> 100	32.8	80.7	> 100	93.6
O=C1N(C2CCCCC2)C(=O)N1C1CCCCC1	0.365	14.1	> 58.9	31.5	29.9	15.7	> 45.7	16.6	11.7	> 54.5	31.7	11.3	11.1	17.4	30.3	2.07	1.9	> 100	48.6	22.2
O=c1c2cccnc2n2n1Cc1ccccc1C2	> 100	> 100	> 100	> 100			> 100	> 100	> 100	> 100	> 100	> 100	> 100	> 100	> 100	> 100	> 100	> 100	> 100	> 100
NC1c2c(Br)sc(N3CCCC3)c2C(=O)C1O (stereo not drawn)	> 50	> 50	> 50		> 50	> 50	> 50	> 50	> 50	> 50	> 50	> 50	> 50	> 50	> 50	> 50	> 50	> 50	> 50	> 50
O=C(OCc1ccccc1)N(CCCCN(CCCNC(=O)C(F)(F)F)C(=O)OCc1ccccc1)CCCNC(=O)C(F)(F)F	> 100	> 100	> 100	> 100	> 100	> 100	> 100	> 100		> 100	> 100	> 100	> 100	> 100	> 100	> 100	> 100	> 100	> 100	> 100
Nc1ncc(Br)c(NCC2(CO)CCC2)n1	> 100	> 100	> 100	> 100		> 100	> 100	> 100	> 100	> 100	> 100	> 100	> 100	63.4	> 100	> 100	> 100	> 100	> 100	> 100
Cc1sc(Nc2ccc(Nc3nc(-c4ccccc4)c(C)s3)cc2)nc1-c1ccccc1		> 100	> 100	> 100	> 100	> 100	48.4	> 100	> 100	> 100	> 100	> 100	> 100	> 100	> 100	> 100	> 100	> 100	71.5	> 100
CCCN(CCC)CCc1ccc(OC2=CCN(C)CC2)cc1	> 100	> 100	> 100	> 100	> 100	> 100	> 100	> 100	32.4	> 100	> 100	> 100	89.8	> 100		> 100	> 100	> 100	> 100	> 100
CC(C)=C1C(=O)C[C@]2(C)C[C@H]3O[C@]3(C)CC[C@@H]3O[C@@]3(C)CC[C@@H]12	> 50	> 50	> 50	> 50	> 50	> 50	> 50	> 50		> 50	> 50	> 50	> 50	> 50	> 50	> 50	> 50	> 50	> 50	> 50
C[N+](C)(CCCn1ccnc1[N+](=O)[O-])CCCn1ccnc1[N+](=O)[O-]	> 100	> 100	> 100	> 100		> 100	> 100	> 100	> 100	> 100	> 100	> 100	> 100	> 100	> 100	> 100	> 100	> 100	> 100	> 100
